Data as given in patent US20060116390A1, “Hepatitis c virus inhibitors” (priority 2003, published 2006).
Read-outs that look alike come from different tables or passages of the source.

Test system: HCV proteins in Rep5.1 cells (replicon cell line)
Assay: Inhibitory activity of HCV: cell-based ELISA in replicon cell line Rep5.1 (decrease of HCV proteins)
Design: species or system hepatitis C virus
Settings: Hepatitis C virus, 72 h
Outline: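 Rep5.1 replicon cells (5000/well, DMEM-10 with 500 μg/ml G418) were given serially diluted drug 4 h after seeding. After 72 h, cells were fixed in methanol/acetone and HCV proteins detected by cell-based ELISA using replicon-specific patient plasma antibodies. IC50 is the concentration giving 50% protein decrease versus the no-drug control.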

[1] = Rep5.1 cells, 72 hours with drug, concentration at which 50% of HCV proteins was decreased, Table 2, read-out: IC50
[2] = Rep5.1 cells, 72 hours with drug, decrease of HCV proteins measured by HCV antibody, Table 1, read-out: Level (IC50 values classified)

**Q.** Which IC50 [1] does the source give for CC1=C(C(=O)OCc2ccc(S(C)(=O)=O)cc2)CNC(=S)N1 [Compound 74, 6-methyl-2-thioxo-1,2,3,4-tetrahydro-pyrimidine-5-carboxylic acid 4-methanesulfonyl-benzyl ester] here?
**A.** > 100000 nM

**Q.** What about the IC50 [2] of the same compound?
**A.** > 20000 nM

**Q.** With CC1=C(C(=O)OCc2ccc(C)s2)CNC(=S)N1 [Compound 232, 6-methyl-2-thioxo-1,2,3,4-tetrahydro-pyrimidine-5-carboxylic acid 5-methyl-thiophen-2-ylmethyl ester] as the compound, how does the IC50 [1] read?
**A.** 20000 nM

**Q.** What about the IC50 [2] of the same compound?
**A.** 10000 to 20000 nM

**Q.** For COc1ccc(COC(=O)C2=C(C)NC(=S)NC2)c(OC)c1C [Compound 137, 6-methyl-2-thioxo-1,2,3,4-tetrahydro-pyrimidine-5-carboxylic acid 2,4-dimethoxy-3-methyl-benzyl ester], which IC50 [1] is on record?
**A.** 10000 nM

**Q.** And the IC50 [2]?
**A.** 1000 to 10000 nM

**Q.** With COc1ccc(Cl)cc1COC(=O)C1=C(C)NC(=S)NC1 [Compound 132, 6-methyl-2-thioxo-1,2,3,4-tetrahydro-pyrimidine-5-carboxylic acid 5-chloro-2-methoxy-benzyl ester] as the compound, how does the IC50 [1] read?
**A.** 400 nM

**Q.** What about the IC50 [2] of the same compound?
**A.** < 1000 nM

**Q.** With CC(=O)SCCOC(=O)OCC1NC(=S)NC(C)=C1C(=O)OCCc1cccc([N+](=O)[O-])c1 (centres unmarked) [79″, 4-(2-acetylsulfanyl-ethoxycarbonyloxymethyl)-6-methyl-2-thioxo-1,2,3,4-tetrahydro-pyrimidine-5-carboxylic acid 2-(3-nitro-phenyl)-ethyl ester] as the compound, how does the IC50 [1] read?
**A.** 6200 nM

**Q.** And the IC50 [2]?
**A.** 1000 to 10000 nM

**Q.** How did the IC50 [1] turn out when CC1=C(C(=O)OCc2ccccc2Cl)CNC(=S)N1 [Compound 84, 6-methyl-2-thioxo-1,2,3,4-tetrahydro-pyrimidine-5-carboxylic acid 2-chloro-benzyl ester] was run?
**A.** < 400 nM

**Q.** What about the IC50 [2] of the same compound?
**A.** < 1000 nM

**Q.** How did the IC50 [1] turn out when CC1=C(C(=O)OCc2c(C)cc(C)cc2C)CNC(=S)N1 [Compound 142, 6-methyl-2-thioxo-1,2,3,4-tetrahydro-pyrimidine-5-carboxylic acid 2,4,6-trimethyl-benzyl ester] was run?
**A.** 6000 nM

**Q.** What about the IC50 [2] of the same compound?
**A.** 1000 to 10000 nM

**Q.** How did the IC50 [1] turn out when CC1=C(C(=O)OCCc2ccsc2F)C(CF)NC(=S)N1 (centres unmarked) [1′, 4-fluoromethyl-6-methyl-2-thioxo-1,2,3,4-tetrahydro-pyrimidine-5-carboxylic acid 2-(2-fluoro-thiophen-3-yl)-ethyl ester] was run?
**A.** 1800 nM

**Q.** What about the IC50 [2] of the same compound?
**A.** 1000 to 10000 nM

**Q.** For COc1ccc(COC(=O)C2=C(C)NC(=S)NC2)cc1Br [Compound 141, 6-methyl-2-thioxo-1,2,3,4-tetrahydro-pyrimidine-5-carboxylic acid 3-bromo-4-methoxy-benzyl ester], which IC50 [1] is on record?
**A.** 700 nM

**Q.** What about the IC50 [2] of the same compound?
**A.** < 1000 nM

**Q.** How did the IC50 [1] turn out when CC1=C(C(=O)OCCCCc2ccsc2)C(CF)NC(=S)N1 (centres unmarked) [61′, 4-fluoromethyl-6-methyl-2-thioxo-1,2,3,4-tetrahydro-pyrimidine-5-carboxylic acid 4-thiophen-3-yl-butyl ester] was run?
**A.** 3000 nM

**Q.** What about the IC50 [2] of the same compound?
**A.** 1000 to 10000 nM

**Q.** Which IC50 [1] does the source give for CCOC(=O)CCCC1=C(C(=O)OCc2ccccc2)CNC(=S)N1 [Compound 169, 6-(3-ethoxycarbonyl-propyl)-2-thioxo-1,2,3,4-tetrahydro-pyrimidine-5-carboxylic acid benzyl ester] here?
**A.** 9000 nM

**Q.** What about the IC50 [2] of the same compound?
**A.** 1000 to 10000 nM

**Q.** For CC1=C(C(=O)OCc2ccc(OCc3ccccc3)cc2)CNC(=S)N1 [Compound 49, 6-methyl-2-thioxo-1,2,3,4-tetrahydro-pyrimidine-5-carboxylic acid 4-benzyloxy-benzyl ester], which IC50 [1] is on record?
**A.** < 500 nM

**Q.** What about the IC50 [2] of the same compound?
**A.** < 1000 nM

**Q.** CC1=C(C(=O)OCc2ccccc2)C(CO)NC(=S)N1 (centres unmarked) [8″, 4-hydroxymethyl-6-methyl-2-thioxo-1,2,3,4-tetrahydro-pyrimidine-5-carboxylic acid benzyl ester] was tested. Which IC50 [1] did it give?
**A.** > 100000 nM

**Q.** What about the IC50 [2] of the same compound?
**A.** > 20000 nM

**Q.** Which IC50 [1] does the source give for CC1=C(C(=O)OCCc2cccc(OC(F)(F)F)c2)C(CO)NC(=S)N1 (centres unmarked) [75″, 4-hydroxymethyl-6-methyl-2-thioxo-1,2,3,4-tetrahydro-pyrimidine-5-carboxylic acid 2-(3-trifluoromethoxy-phenyl)-ethyl ester] here?
**A.** < 400 nM

**Q.** And the IC50 [2]?
**A.** < 1000 nM

**Q.** Which results are given for CC1=C(C(=O)OCCc2cccc(Cl)c2)C(CF)NC(=S)N1 (centres unmarked) [70′, 4-fluoromethyl-6-methyl-2-thioxo-1,2,3,4-tetrahydro-pyrimidine-5-carboxylic acid 2-(3-chloro-phenyl)-ethyl ester]?
**A.** IC50 [1]: 1000 nM; IC50 [2]: < 1000 nM

**Q.** How did the IC50 [1] turn out when CC1=C(C(=O)OCCc2ccc(F)cc2Cl)C(CO)NC(=S)N1 (centres unmarked) [58″, 4-hydroxymethyl-6-methyl-2-thioxo-1,2,3,4-tetrahydro-pyrimidine-5-carboxylic acid 2-(2-chloro-4-fluoro-phenyl)-ethyl ester] was run?
**A.** 1800 nM

**Q.** And the IC50 [2]?
**A.** 1000 to 10000 nM

**Q.** Which results are given for CC1=C(C(=O)OCCc2ccc([N+](=O)[O-])cc2)CNC(=S)N1 [Compound 119, 6-methyl-2-thioxo-1,2,3,4-tetrahydro-pyrimidine-5-carboxylic acid 2-(4-nitro-phenyl)-ethyl ester]?
**A.** IC50 [1]: 1300 nM; IC50 [2]: 1000 to 10000 nM

**Q.** With COc1ccc(COC(=O)C2=C(C)NC(=S)NC2CF)cc1Cl (centres unmarked) [82′, 4-fluoromethyl-6-methyl-2-thioxo-1,2,3,4-tetrahydro-pyrimidine-5-carboxylic acid 3-chloro-4-methoxy-benzyl ester] as the compound, how does the IC50 [1] read?
**A.** 2500 nM

**Q.** And the IC50 [2]?
**A.** 1000 to 10000 nM

**Q.** For CC1=C(C(=O)OCc2cc([N+](=O)[O-])ccc2Cl)C(CF)NC(=S)N1 (centres unmarked) [83′, 4-fluoromethyl-6-methyl-2-thioxo-1,2,3,4-tetrahydro-pyrimidine-5-carboxylic acid 2-chloro-5-nitro-benzyl ester], which IC50 [1] is on record?
**A.** 5700 nM

**Q.** What about the IC50 [2] of the same compound?
**A.** 1000 to 10000 nM

**Q.** CCOc1cc(COC(=O)C2=C(C)NC(=S)NC2)cc(OCC)c1 [Compound 150, 6-methyl-2-thioxo-1,2,3,4-tetrahydro-pyrimidine-5-carboxylic acid 3,5-diethoxy-benzyl ester] was tested. Which IC50 [1] did it give?
**A.** 1000 nM

**Q.** What about the IC50 [2] of the same compound?
**A.** < 1000 nM

**Q.** For CC1=C(C(=O)OCCCc2ccsc2F)C(CO)NC(=S)N1 (centres unmarked) [13″, 4-hydroxymethyl-6-methyl-2-thioxo-1,2,3,4-tetrahydro-pyrimidine-5-carboxylic acid 3-(2-fluoro-thiophen-3-yl)-propyl ester], which IC50 [1] is on record?
**A.** 5300 nM

**Q.** And the IC50 [2]?
**A.** 1000 to 10000 nM

**Q.** For CC1=C(C(=O)OCc2ccn(S(=O)(=O)c3ccc(C)cc3)c2)CNC(=S)N1 [Compound 230, 6-methyl-2-thioxo-1,2,3,4-tetrahydro-pyrimidine-5-carboxylic acid 1-(toluene-4-sulfonyl)-1H-pyrrol-3-ylmethyl ester], which IC50 [1] is on record?
**A.** < 400 nM

**Q.** And the IC50 [2]?
**A.** < 1000 nM

**Q.** Which IC50 [1] does the source give for CC1=C(C(=O)OCC2CC=CCC2)C(CF)NC(=S)N1 (centres unmarked) [44′, 4-fluoromethyl-6-methyl-2-thioxo-1,2,3,4-tetrahydro-pyrimidine-5-carboxylic acid cyclohex-3-enylmethyl ester] here?
**A.** 2800 nM

**Q.** And the IC50 [2]?
**A.** 1000 to 10000 nM

**Q.** What does the source list for CC1=C(C(=O)OCCCc2ccccc2)C(CF)NC(=S)N1 (centres unmarked) [31′, 4-fluoromethyl-6-methyl-2-thioxo-1,2,3,4-tetrahydro-pyrimidine-5-carboxylic acid 3-phenyl-propyl ester]?
**A.** IC50 [1]: 400 nM; IC50 [2]: < 1000 nM

**Q.** How did the IC50 [1] turn out when CC1=C(C(=O)OCc2ccc(-c3ccc([N+](=O)[O-])cc3)o2)CNC(=S)N1 [Compound 128, 6-methyl-2-thioxo-1,2,3,4-tetrahydro-pyrimidine-5-carboxylic acid 5-(4-nitro-phenyl)-furan-2-ylmethyl ester] was run?
**A.** 1000 nM

**Q.** And the IC50 [2]?
**A.** < 1000 nM

**Q.** What does the source list for CCc1ccc(CCCOC(=O)C2=C(C)NC(=S)NC2CO)o1 (centres unmarked) [19″, 4-hydroxymethyl-6-methyl-2-thioxo-1,2,3,4-tetrahydro-pyrimidine-5-carboxylic acid 3-(5-ethyl-furan-2-yl)-propyl ester]?
**A.** IC50 [1]: 1400 nM; IC50 [2]: 1000 to 10000 nM

**Q.** With COCC1=C(C(=O)OCc2ccccc2)CNC(=S)N1 [Compound 64, 6-methoxymethyl-2-thioxo-1,2,3,4-tetrahydro-pyrimidine-5-carboxylic acid benzyl ester] as the compound, how does the IC50 [1] read?
**A.** 15000 nM

**Q.** And the IC50 [2]?
**A.** 10000 to 20000 nM

**Q.** Which results are given for CC1=C(C(=O)OCCc2ccsc2)C(CCl)NC(=S)N1 (centres unmarked) [76′, 4-chloromethyl-6-methyl-2-thioxo-1,2,3,4-tetrahydro-pyrimidine-5-carboxylic acid 2-thiophen-3-yl-ethyl ester]?
**A.** IC50 [1]: 62000 nM; IC50 [2]: > 20000 nM

**Q.** What does the source list for CC1=C(C(=O)OCc2ccccc2C(F)(F)F)CNC(=S)N1 [Compound 100, 6-methyl-2-thioxo-1,2,3,4-tetrahydro-pyrimidine-5-carboxylic acid 2-trifluoromethyl-benzyl ester]?
**A.** IC50 [1]: < 400 nM; IC50 [2]: < 1000 nM

**Q.** O=C(OCc1ccccc1)C1=C(C(F)(F)F)NC(=S)NC1 [Compound 146, 2-thioxo-6-trifluoromethyl-1,2,3,4-tetrahydro-pyrimidine-5-carboxylic acid benzyl ester] was tested. Which IC50 [1] did it give?
**A.** > 100000 nM

**Q.** And the IC50 [2]?
**A.** > 20000 nM

**Q.** For CC1=C(C(=O)OCC2=CCC3CC2C3(C)C)CNC(=S)N1 (centres unmarked) [Compound 97, 6-methyl-2-thioxo-1,2,3,4-tetrahydro-pyrimidine-5-carboxylic acid 6,6-dimethyl-bicyclo[3.1.1]hept-2-en-2-ylmethyl ester], which IC50 is on record?
**A.** < 400 nM

**Q.** And the IC50 (read-out: Level (IC50 values classified))?
**A.** < 1000 nM

**Q.** Which results are given for CC1=C(C(=O)OCc2cc3ccccc3s2)CNC(=S)N1 [Compound 219, 6-methyl-2-thioxo-1,2,3,4-tetrahydro-pyrimidine-5-carboxylic acid benzo[b]thiophen-2-ylmethyl ester]?
**A.** IC50 [1]: < 400 nM; IC50 [2]: < 1000 nM

**Q.** With CC1=C(C(=O)OCCc2ccc(F)cc2)C(CF)NC(=S)N1 (centres unmarked) [32′, 4-fluoromethyl-6-methyl-2-thioxo-1,2,3,4-tetrahydro-pyrimidine-5-carboxylic acid 2-(4-fluoro-phenyl)-ethyl ester] as the compound, how does the IC50 [1] read?
**A.** 900 nM

**Q.** What about the IC50 [2] of the same compound?
**A.** < 1000 nM

**Q.** How did the IC50 [1] turn out when COC(=O)c1ccc(COC(=O)C2=C(C)NC(=S)NC2)cc1 [Compound 11, 6-methyl-2-thioxo-1,2,3,4-tetrahydro-pyrimidine-5-carboxylic acid 4-methoxycarbonyl-benzyl ester] was run?
**A.** > 100000 nM

**Q.** And the IC50 [2]?
**A.** > 20000 nM
